Molecules are shown by their SMILES.

The test system of the assay is Plasmodium berghei. The assay is described as follows: Antimalarial activity against Plasmodium berghei. It counts as functional.

In the case of `CCCCN(CCCC)CCC(O)c1cc(-c2ccc(C(F)(F)F)cc2)nc(-c2ccc(C(F)(F)F)cc2)c1` (stereo not given), the “log(1/C)” value is given as 4.57.

For `CCCCN(CCCC)CC(O)c1cc(Cl)nc2ccccc12` (stereo not given), the “log(1/C)” value worked out at 2.14.

`CCCCN(CCCC)CC(O)c1cc(-c2ccc(F)cc2)nc2cc(F)ccc12` (stereo not given): the “log(1/C)” value was 2.52.

Regarding `Cc1ccc2nc(-c3ccccc3)cc(C(O)CC3CCCCN3)c2c1` (stereo not given), the “log(1/C)” value amounted to 2.47.

For the compound `OC(CC1CCCCN1)c1cc(C(F)(F)F)nc2ccc(Cl)cc12` (stereo not given), the “log(1/C)” value came out at 2.53.

Take `Cc1cc(C)c2nc(Oc3ccc(Cl)cc3)cc(C(O)CC3CCCCN3)c2c1` (stereo not given): the “log(1/C)” value amounted to 2.72.

`OC(CC1CCCCN1)c1cc(Oc2ccc(Cl)cc2)nc2ccccc12` (stereo not given): the “log(1/C)” value is listed as 2.68.

As for `Cc1cc(C)c2nc(Nc3ccc(Cl)cc3)cc(C(O)CC3CCCCN3)c2c1` (stereo not given), the “log(1/C)” value came out at 2.74.

As for `OC(CC1CCCCN1)c1cc(Nc2ccc(Cl)cc2)nc2ccc(Cl)cc12` (stereo not given), the “log(1/C)” value amounted to 2.72.

On to `OC(CC1CCCCN1)c1cc(Nc2ccc(Cl)cc2)nc2ccccc12` (stereo not given), for which the “log(1/C)” value amounted to 2.52.

In the case of `CCCCN(CCCC)CC(O)c1cc(-c2ccc(Cl)cc2)nc2ccccc12` (stereo not given), the “log(1/C)” value came to 2.73.

Consider `CCCCN(CCCC)CC(O)c1cc(-c2ccc(OC)cc2)nc2cc(OC)c(Cl)cc12` (stereo not given), for which the “log(1/C)” value was found to be 2.71.

As for `CCCCCCN(CCCCCC)CC(O)c1cc(-c2ccc(OC)cc2)nc2cc(OC)c(Cl)cc12` (stereo not given), the “log(1/C)” value is listed as 2.64.

Turning to `CCCCCN(CCCCC)CC(O)c1cc(-c2ccccc2)nc2ccccc12` (stereo not given), the “log(1/C)” value is given as 2.57.

`COc1ccc(-c2cc(C(O)CC3CCCCN3)c3ccccc3n2)cc1` (stereo not given): the “log(1/C)” value is 2.53.

Take `CCCCN(CCCC)CC(O)c1cc(-c2ccc(Cl)cc2)nc2c(OC)ccc(OC)c12` (stereo not given): the “log(1/C)” value was determined as 2.52.

Consider `CN1CCN(CC(O)c2cc(-c3ccccc3)nc3c(Cl)cc(Cl)cc23)CC1` (stereo not given), for which the “log(1/C)” value came to 2.48.

`OC(CN1CCCCC1)c1cc(-c2ccc(F)cc2)nc2cc(F)ccc12` (stereo not given): the “log(1/C)” value is 2.45.

Take `CCN(CC)CC(O)c1cc(-c2ccccc2)nc2ccc(OC)cc12` (stereo not given): the “log(1/C)” value turned out to be 2.44.

Regarding `CCCCN(CCCC)C(C)CC(O)c1cc(-c2ccc(Cl)cc2)nc2c(C)cc(C)cc12` (stereo not given), the “log(1/C)” value is reported as 2.42.

`Cc1ccc(-c2cc(C(O)CN3CCCCC3)c3cc(C)ccc3n2)cc1` (stereo not given): the “log(1/C)” value is 2.42.

As to `CCCCN(CCCC)CC(O)c1cc(-c2c(Cl)cccc2Cl)nc2c(Cl)cc(Cl)cc12` (stereo not given), the “log(1/C)” value amounted to 2.41.

Regarding `Cc1ccc(-c2cc(C(O)CC3CCCCN3)c3ccccc3n2)cc1` (stereo not given), the “log(1/C)” value was 2.38.

As for `OC(CC1CCCCN1)c1cc(-c2ccccc2)nc2ccccc12` (stereo not given), the “log(1/C)” value was 2.37.

For the compound `OC(CNC12CC3CC(CC(C3)C1)C2)c1cc(-c2ccccc2)nc2c(Cl)cc(Cl)cc12` (stereo not given), the “log(1/C)” value amounted to 2.36.

On to `Cc1ccc(-c2cc(C(O)CC3CCCCN3)c3cc(F)ccc3n2)cc1` (stereo not given), for which the “log(1/C)” value is recorded as 2.34.

Regarding `OC(CC1CCCCN1)c1cc(-c2ccc(F)cc2)nc2cc(F)ccc12` (stereo not given), the “log(1/C)” value was 2.32.

Regarding `CN1CCN(CC(O)c2cc(-c3ccc(F)cc3)nc3cc(F)ccc23)CC1` (stereo not given), the “log(1/C)” value amounted to 2.27.

Consider `OC(CC1CCCN1)c1cc(-c2ccccc2)nc2ccccc12` (stereo not given), for which the “log(1/C)” value was determined as 2.26.

Take `Cc1cc(C)cc(-c2cc(C(O)CC3CCCCN3)c3ccccc3n2)c1` (stereo not given): the “log(1/C)” value was found to be 2.24.

For the compound `OC(CN1CCOCC1)c1cc(-c2ccccc2)nc2c(Cl)cc(Cl)cc12` (stereo not given), the “log(1/C)” value is recorded as 2.23.

In the case of `CCCNCCC(O)c1cc(C(F)(F)F)nc2c(C(F)(F)F)cccc12` (stereo not given), the “log(1/C)” value turned out to be 2.82.

On to `CC(C)(C)NCC(O)c1cc(C(F)(F)F)nc2c(C(F)(F)F)cccc12` (stereo not given), for which the “log(1/C)” value is given as 2.64.

For the compound `CCNC(C)(C)CC(O)c1cc(C(F)(F)F)nc2c(C(F)(F)F)cccc12` (stereo not given), the “log(1/C)” value worked out at 2.54.

As to `OC(CC1CCCCN1)c1cc(C(F)(F)F)nc2c(F)cccc12` (stereo not given), the “log(1/C)” value is reported as 2.36.

With `OC(CC1CCCCN1)c1cc(C(F)(F)F)nc2ccc(F)cc12` (stereo not given), the “log(1/C)” value was 2.33.

Take `CCCCN(CCCC)CC(O)c1c(C)cnc2c1cc(Cl)c1ccccc12` (stereo not given): the “log(1/C)” value is reported as 2.38.

On to `OC(CC1CCCCN1)c1ccnc2c(C(F)(F)F)cccc12` (stereo not given), for which the “log(1/C)” value is recorded as 2.75.

Consider `CCCCN(CCCC)CC(O)c1cc(C2(C)CCCC2)nc2c(Cl)cc(Cl)cc12` (stereo not given), for which the “log(1/C)” value was determined as 2.66.

Take `CCCCCCCCN(CCCCCCCC)CC(O)c1ccnc2ccccc12` (stereo not given): the “log(1/C)” value stood at 2.44.

For `CCCCN(CCCC)CC(O)c1ccnc2cc(C(F)(F)F)ccc12` (stereo not given), the “log(1/C)” value is listed as 2.51.

On to `NC(=O)c1cc(C(O)CC2CCCCN2)c2cccc(C(F)(F)F)c2n1` (stereo not given), for which the “log(1/C)” value is recorded as 2.42.

Regarding `CCCCNc1cc(C(O)CC2CCCCN2)c2ccccc2n1` (stereo not given), the “log(1/C)” value is 2.41.

`C=C[C@H]1CN2CC[C@H]1C[C@H]2[C@H](O)c1ccnc2ccc(OC)cc12.O=C(O)CCC(=O)O`: the “log(1/C)” value is 2.28.

For the compound `CCCCN(CCCC)CC(O)c1cc(OCC)nc2ccccc12` (stereo not given), the “log(1/C)” value was found to be 2.24.

For the compound `OC(CC1CCCCN1)c1ccnc2cc(Cl)ccc12` (stereo not given), the “log(1/C)” value amounted to 2.14.

`CCCCN(CCCC)CC(O)c1c(C)cnc2c1ccc1ccccc12` (stereo not given): the “log(1/C)” value turned out to be 2.15.

`OC(CC1CCCCN1)c1ccnc2c(Cl)cccc12` (stereo not given): the “log(1/C)” value was 2.01.

In the case of `C=C[C@H]1CN2CC[C@H]1C[C@H]2[C@H](O)c1ccnc2ccc(OC)cc12.O=C(O)c1ccccc1`, the “log(1/C)” value was determined as 1.98.

For the compound `CCOc1ccc2nccc(C(O)C[N+]34CCC(CC3)C(CC)C4)c2c1` (stereo not given), the “log(1/C)” value stood at 1.97.

As for `CCCCN(CCCC)CC(O)c1cc(Oc2cccc(C(C)(F)F)c2)nc2c(Cl)cc(Cl)cc12` (stereo not given), the “log(1/C)” value turned out to be 2.76.

Regarding `Cc1ccc(Oc2cc(C(O)CC3CCCCN3)c3cc(C)ccc3n2)cc1` (stereo not given), the “log(1/C)” value is 2.35.

With `CCCCN(CCCC)CC(O)c1cc(C(C)(C)C)nc2c1ccc1ccccc12` (stereo not given), the “log(1/C)” value came to 2.65.

On to `CCCCN(CCCC)CC(O)c1cc(C(C)(C)C)nc2ccc(C)cc12` (stereo not given), for which the “log(1/C)” value was 2.53.

For `CCCCN(CCCC)CC(O)c1cc(C(C)(C)C)nc2c1cc(C)c1ccccc12` (stereo not given), the “log(1/C)” value came out at 2.32.

As to `CCN(CC)CC(O)c1cc(-c2cccs2)nc2cccc(Br)c12` (stereo not given), the “log(1/C)” value came to 2.38.

Turning to `CN(Cc1ccccc1)CC(O)c1cc(-c2cccs2)nc2cccc(Br)c12` (stereo not given), the “log(1/C)” value worked out at 2.26.

Take `CCN(CC)C(CO)CC(O)c1cc(-c2cccs2)nc2ccc(Cl)cc12` (stereo not given): the “log(1/C)” value amounted to 2.12.

For the compound `CCCCN(CCCC)CC(O)c1cc(C23CC4CC(CC(C4)C2)C3)nc2ccc(Cl)cc12` (stereo not given), the “log(1/C)” value was 3.05.

Take `CCCCN(CCCC)CC(O)c1cc(Cc2ccccc2)nc2c(Cl)cc(Cl)cc12` (stereo not given): the “log(1/C)” value turned out to be 2.6.

For `CCCCN(CCCC)CC(O)c1cc(Cc2ccccc2)nc2c(Cl)cccc12` (stereo not given), the “log(1/C)” value is 2.3.

Turning to `CCCCN(CCCC)CC(O)c1cc(C(F)(F)c2ccccc2)nc2c(Cl)cc(Cl)cc12` (stereo not given), the “log(1/C)” value was 2.61.

With `CCCCN(CCCC)CC(O)c1cc(C(F)(F)c2ccccc2)nc2c(Cl)cccc12` (stereo not given), the “log(1/C)” value is listed as 2.46.

`OC(CC1CCCCN1)C1CC(c2ccccc2)=Nc2c(Cl)cc(Cl)cc21` (stereo not given): the “log(1/C)” value was 2.71.

On to `CCCC(C)NCC(O)c1cc(-c2ccc(C(F)(F)F)cc2)nc(-c2ccc(C(F)(F)F)cc2)c1` (stereo not given), for which the “log(1/C)” value is recorded as 4.44.
